According to article PMC6338644 (The FASEB Journal, 2018):
Where a name gives a salt, the structure may show the parent alone.

Tests used:
[1] = target: T1, SHIP2 immunoprecipitated from the lysates of podocytes (Homo sapiens, UniProt O15357); test: Activity of SHIP2 immunoprecipitated from podocytes; type: cell-based; settings: 20–24 h
T1 construct: endogenous in cells; host or cells: immortalized human podocytes
T1 sequence (O15357 1-1258): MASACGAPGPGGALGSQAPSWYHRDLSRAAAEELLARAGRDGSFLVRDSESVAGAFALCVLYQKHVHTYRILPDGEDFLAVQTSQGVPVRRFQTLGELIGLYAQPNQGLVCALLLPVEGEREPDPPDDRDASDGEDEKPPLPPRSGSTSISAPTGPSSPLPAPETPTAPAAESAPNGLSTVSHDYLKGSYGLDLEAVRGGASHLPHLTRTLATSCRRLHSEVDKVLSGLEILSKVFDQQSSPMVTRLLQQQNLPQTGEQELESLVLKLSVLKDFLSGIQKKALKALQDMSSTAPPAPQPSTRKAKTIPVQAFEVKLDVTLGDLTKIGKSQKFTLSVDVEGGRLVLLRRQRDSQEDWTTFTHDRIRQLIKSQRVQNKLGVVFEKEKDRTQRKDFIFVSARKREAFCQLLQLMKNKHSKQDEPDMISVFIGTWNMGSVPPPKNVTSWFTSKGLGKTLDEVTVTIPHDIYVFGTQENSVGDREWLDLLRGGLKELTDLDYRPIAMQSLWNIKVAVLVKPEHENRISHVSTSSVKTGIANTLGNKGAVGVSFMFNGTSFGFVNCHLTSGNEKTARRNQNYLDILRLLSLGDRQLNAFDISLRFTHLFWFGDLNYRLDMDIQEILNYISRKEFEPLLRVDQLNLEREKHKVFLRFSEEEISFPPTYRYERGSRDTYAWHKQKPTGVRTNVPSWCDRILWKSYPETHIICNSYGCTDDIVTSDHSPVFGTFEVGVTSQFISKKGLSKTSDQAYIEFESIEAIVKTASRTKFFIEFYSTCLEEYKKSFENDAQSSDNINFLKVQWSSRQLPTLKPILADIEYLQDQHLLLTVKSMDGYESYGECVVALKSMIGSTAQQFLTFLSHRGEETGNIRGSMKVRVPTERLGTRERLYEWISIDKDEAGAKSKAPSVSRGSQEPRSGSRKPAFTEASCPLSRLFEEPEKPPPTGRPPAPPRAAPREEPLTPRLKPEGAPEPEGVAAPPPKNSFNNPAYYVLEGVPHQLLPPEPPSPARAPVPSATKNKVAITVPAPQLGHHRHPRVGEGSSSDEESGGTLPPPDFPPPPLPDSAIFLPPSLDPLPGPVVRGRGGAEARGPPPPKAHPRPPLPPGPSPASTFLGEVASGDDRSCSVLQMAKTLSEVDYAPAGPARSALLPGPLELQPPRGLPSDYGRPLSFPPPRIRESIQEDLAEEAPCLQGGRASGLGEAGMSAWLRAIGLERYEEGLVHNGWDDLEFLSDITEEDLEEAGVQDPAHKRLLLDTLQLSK
Experimental: Immortalized human podocytes were maintained as previously described ([10]). […] Podocytes were lysed as previously described ([21]).
Recombinant His-tagged human SHIP2 and SHIP1 phosphatase domains were produced as previously described ([17]). […] Immunocomplexes were bound to protein G-Sepharose beads at +4°C for 2 h and washed 3 times with malachite green phosphate assay buffer {10 mM 4-(2-hydroxyethyl)-1-piperazineethanesulfonic acid (HEPES), pH 7.25, 6 mM MgCl2, 0.1% 3-[(3-cholamidopropyl)dimethylammonio]-1-propanesulfonate (CHAPS), 250 mM sucrose, and 0.25 mM EDTA}.
The catalytic activities of the recombinant SHIP2 and SHIP1 phosphatase domains were determined by malachite green phosphate assay at the High Throughput Biomedicine Unit (University of Helsinki) using D-myo-PI(3,4,5)P3 (Echelon Biosciences, Salt Lake City, UT, USA). Different volumes, resulting in desired final concentrations of inhibitors, were transferred to the wells of 384-well plates by using the Echo550 acoustic dispenser (Labcyte, San Jose, CA, USA). Recombinant protein (100 ng) in reaction buffer {10 mM HEPES, pH 7.25, 6 mM MgCl2, 0.1% CHAPS, 250 mM sucrose, and 0.25 mM EDTA} was placed in each well (7.5 µl), and the plates were preincubated at room temperature for 15 min. The phosphatase reaction was started by adding PI(3,4,5)P3 diluted in the reaction buffer (7.5 µl) to each well to reach a final concentration of 100 µM PI(3,4,5)P3 in the 15 µl reaction volume. […] Absorbance was measured at 620 nm using a Pherastar FS plate reader (BMG Labtech, Offenburg, Germany). […] The catalytic activity of SHIP2 immunoprecipitated from cell and tissue lysates was determined as in Saurus et al. ([22]), omitting SHIP2 inhibitors in lysis buffer, immunoprecipitation reaction, wash, and assay buffers. […]
Hydrogen bond is shown in green. […] The catalytic activity of SHIP2 was measured by manual malachite green phosphate assay.

[2] = tested on: GLUT1 and GLUT4 protein expression; test: Immunoblot of GLUT1 and GLUT4 expression in myotubes and podocytes; type: cell-based, rat, human; settings: 2 mM, 20–24 h
From the text: Rat L6 myoblasts (American Type Culture Collection, Manassas, VA, USA) and hepatoma cells (Fao Cells, Culture Collection; Public Health England, Salisbury, United Kingdom) were maintained according to the provider’s instructions. L6 myoblasts stably expressing hemagglutinin-GLUT4-green fluorescent protein (HA-GLUT4-GFP, referred to as L6-GLUT4) were generated, as previously described ([19]). Immortalized human podocytes were maintained as previously described ([10]). Lentiviral infection was used to overexpress or knock down transiently SHIP2 in cultured cells on d 10–12 of differentiation for 48 h (basal level) or 72 h (insulin stimulation), as previously described ([10], [20]). Human pLKO1-short hairpin RNA (shRNA) SHIP2 ([sequence]) was obtained from Functional Genomics Unit, University of Helsinki. […] Podocytes were lysed as previously described ([21]). Myotubes, hepatoma cells, and tissues were lysed and immunoblotting performed as in Tolvanen et al. ([19]) with anti-SHIP2 and anti-AMPK (Santa Cruz Biotechnology, Dallas, TX, USA); anti-phospho (p)Akt (S473), anti-pAMPK (Thr172), anti-AMPK, and anti-cleaved caspase-3 (Cell Signaling Technology, Danvers, MA, USA); anti-Pan Akt (R&D Systems, Minneapolis, MN, USA); anti-tubulin, anti-Glut4, and anti-Glut1 (MilliporeSigma, Burlington, MA, USA); and anti-actin (Abcam, Cambridge, United Kingdom).

db/db mice = test: Metabolic assays in db/db mice; type: in vivo, mouse; settings: 250 mg/kg per day, 12 d
Experimental: At the end of the experiment, mice were euthanized.
Insulin tolerance test was performed and blood glucose measured at the indicated times after insulin injection, and the area under the curve (AUC) was calculated (n = 5–6).

[3] = target: SHIP2 in tissues of db/db mice (Mus musculus, UniProt Q6P549); settings: 250 mg/kg per day, 12 d
SHIP2 in tissues of db/db mice, sequence (Q6P549 whole entry): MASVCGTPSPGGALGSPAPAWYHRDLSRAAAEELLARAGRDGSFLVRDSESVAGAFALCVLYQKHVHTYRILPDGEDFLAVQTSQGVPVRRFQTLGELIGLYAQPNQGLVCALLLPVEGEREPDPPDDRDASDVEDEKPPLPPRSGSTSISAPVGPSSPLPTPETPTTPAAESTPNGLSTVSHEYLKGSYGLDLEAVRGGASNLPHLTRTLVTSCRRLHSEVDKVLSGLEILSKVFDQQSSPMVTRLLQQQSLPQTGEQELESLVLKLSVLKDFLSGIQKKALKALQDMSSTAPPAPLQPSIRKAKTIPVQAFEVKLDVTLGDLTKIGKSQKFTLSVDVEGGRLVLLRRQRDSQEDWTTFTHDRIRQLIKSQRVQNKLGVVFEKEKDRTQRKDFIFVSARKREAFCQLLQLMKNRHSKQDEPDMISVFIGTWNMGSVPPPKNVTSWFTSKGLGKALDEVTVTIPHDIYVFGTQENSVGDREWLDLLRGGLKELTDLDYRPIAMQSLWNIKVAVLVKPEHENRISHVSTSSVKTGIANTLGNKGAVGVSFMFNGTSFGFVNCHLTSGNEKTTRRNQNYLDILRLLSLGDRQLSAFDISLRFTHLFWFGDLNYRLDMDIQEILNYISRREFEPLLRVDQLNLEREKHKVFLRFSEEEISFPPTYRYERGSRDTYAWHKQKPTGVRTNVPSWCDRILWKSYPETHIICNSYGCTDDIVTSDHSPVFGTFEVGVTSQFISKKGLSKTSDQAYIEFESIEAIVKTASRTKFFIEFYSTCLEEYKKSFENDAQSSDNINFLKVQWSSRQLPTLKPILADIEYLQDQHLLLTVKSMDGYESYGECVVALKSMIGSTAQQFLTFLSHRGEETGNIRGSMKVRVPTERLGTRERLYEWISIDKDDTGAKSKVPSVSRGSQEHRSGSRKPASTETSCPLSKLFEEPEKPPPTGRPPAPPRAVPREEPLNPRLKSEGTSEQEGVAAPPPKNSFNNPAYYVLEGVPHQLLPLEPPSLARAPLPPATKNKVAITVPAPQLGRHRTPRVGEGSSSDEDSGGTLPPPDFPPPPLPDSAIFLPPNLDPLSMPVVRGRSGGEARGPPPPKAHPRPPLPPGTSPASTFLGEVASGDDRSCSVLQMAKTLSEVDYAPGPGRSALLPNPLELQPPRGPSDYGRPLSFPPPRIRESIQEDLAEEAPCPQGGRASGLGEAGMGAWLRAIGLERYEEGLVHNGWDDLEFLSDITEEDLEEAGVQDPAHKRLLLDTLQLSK
From the text: At the end of the experiment, mice were euthanized. Freshly dissected skeletal muscle, kidney, and liver tissues were snap frozen in liquid nitrogen, embedded in Tissue-Tek Optimal Cutting Temperature (OCT) compound (Sakura Finetek, Alphen aan den Rijn, The Netherlands), or fixed in 10% formalin, followed by embedding in paraffin.
SHIP2 was immunoprecipitated from tissue lysates and its catalytic activity measured by malachite green phosphate assay (n = 6–8).

C[C@H](NC(=O)c1sccc1OCc1ccc(Cl)cc1)c1ccccc1 [AS1949490]
reduction of SHIP2 activity in podocytes ([1]; 20 µM): 20–30%

CN(C)C(=N)N=C(N)N [Metformin, 1,1-Dimethylbiguanide hydrochloride]
reduction of SHIP2 activity in podocytes ([1]; 20 µM): 20–30% | reduction of SHIP2 activity in podocytes ([1]; 1 mM): 14% | effect on GLUT1 and GLUT4 protein expression levels [2]: no effect | effect on body weight (db/db mice): no effect | effect on fasting blood glucose concentrations (db/db mice; 6 h fasting): no effect | effect on urinary albumin excretion (db/db mice; 24 h urine): no effect | insulin tolerance test: fasting blood glucose at 30–120 min after insulin administration (db/db mice; insulin 0.75 U/kg): reduces | insulin tolerance test: glucose area under the curve (db/db mice; insulin 0.75 U/kg): reduces | SHIP2 activity in the liver [3]: not reduced | decrease in enzymatic activity of SHIP2 in kidney [3]: 40%
